# Measurements published in US20260118363A1, “Application of GLUN2A and NMDA Receptor Containing GLUN2A as Targets in Screening Drugs for Treating Depression” (Synphatec (Shanghai) Biopharmaceutical Technology Co., Ltd., priority 2021, published 2026).
# Columns and labels:
# [1] = system: excitatory neurons in the hippocampus; assay: Whole cell recording of intrinsic excitability in hippocampal slices; assay type: cell-based, mouse; settings: for excitability of hippocampal neurons (number of action potentials): MK-801 10 µM, ketamine 20 µM
# Protocol: The beaker containing choline chloride slice solution was placed in an ice box and continuously introduced with a mixture of 95% O2 and 5% CO2 to saturate it with oxygen for use. After anesthetized with isoflurane, mice aged 4-8 weeks were quickly decapitated and euthanized. After exposing the skull and peeling off the dura mater, the whole brain was placed in a pre-cooled choline chloride solution for about 1 minute to reduce brain temperature. The whole brain was then taken out and the bilateral hippocampus were peeled off and attached to the surface of the agar block with one end of the hippocampus close to one of the edges of the agar block, after which the hippocampus-attached agar block was glued with 502 adhesive to a removable tray of the oscillating slicer, which was secured in the slicing tank of the oscillating slicer filled with pre-cooled choline chloride slicing solution. The oscillating slicer blade was adjusted to the horizontal position, then start the slicer to begin slice. The speed of the oscillating slicer was set to about 0.2 mm/s, and the slice thickness was 400 μm. The sliced hippocampus was carefully placed into ACSF preheated in water bath at 33-34° C. using a rubber hose and incubated for 30-60 minutes with a continuous introduction of a gas mixture of 95% O2 and 5% CO2. After incubation at 33-34° C., the vessel containing the brain slices was removed from the water bath and incubated at room temperature for about 30 min with continuous aeration and then electrophysiological recordings were performed. Hippocampal slices can be used for about 6 hours under room temperature with continuous aeration.
# Hippocampal slices after incubation were carefully transferred to the bath of the microscope carrier stage with a pipette, and were held in place by pressing using an anchor attached to parallel nylon filaments, using a peristaltic pump to keep the bath continuously pumped with oxygen-saturated ACSF, and the temperature was maintained at room temperature of about 23-26° C. The CA1 region of the hippocampus was firstly localised at low magnification (10×), then switching to high magnification (40×) to locate CA1, after which the field of view was switched to the monitor to look for pyramidal neurons with good condition in hippocampal CA1. […] In the experiment, a P-1000 electrode drawing instrument was used to draw glass electrodes using a three-step method, making the impedance of the electrode into the liquid 4-6 MS2. Prior to electrode into the liquid, a 10 ml syringe was used to apply about 2 ml or so of positive pressure into the electrode to prevent clogging of the electrode tip, and the baseline of the recording software was reset to zero using the Multiple 700B. A microelectrode operator was applied to slowly approach the electrode to the surface of the cell. When the electrode touched the surface of the cell, a “dimple-shaped” depression would appear. At this time, positive pressure would be immediately released and appropriate negative pressure would be applied to form a seal between the electrode and the cell. […] After stabilizing for about 30-60 seconds, negative pressure was applied to break the membrane, and at this moment, a whole cell mode was formed. In current clamp mode, a depolarized step current stimulation of 10-330 pA was applied, with a step current of 20 pA. The intrinsic excitability of the neuron was evaluated by analyzing the number of action potentials generated by the neuron.
# [2] = system: mice; assay: Forced swim test; assay type: in vivo, mouse; settings: for immobility time in the forced swim test: 10 mg/kg intraperitoneal injection, 1 hour after injection
# Protocol: The mice were placed in a transparent organic glass water tank with a diameter of 25 cm and a height of 30 cm, which was filled with 15 cm high of water with a temperature of 23-25° C., and the total recording time was 6 min. The immobility time of the mice within the latter 4 min was analysed, reflecting the degree of helplessness and despair of the mice.
# (§1) MK-801 at a dose of 0.1 mg/kg, ketamine at a dose of 10 mg/kg, and Ro 25-6981 at a dose of 10 mg/kg were administrated to mice by intraperitoneal injection. Behavioural experiments such as subsequent open field tests, tail suspension tests, and forced swim tests were carried out 1 hour post intraperitoneal injection.
# [3] = system: mice; assay: Tail suspension test; assay type: in vivo, mouse; settings: 10 mg/kg
# Protocol: After fixing the mice at about 1.5 cm from the distal end of the tail, the mice were suspended with their heads facing downwards at a distance of about 35 cm from the ground. The total duration of recording was 6 min, and the percentage of time that the mice remained stationary during the latter 4 min was analysed to reflect the degree of desperation of mice.
# as §1
# [4] = hippocampal slices from GluN2A KO mice
# [5] = hippocampal slices from WT mice, Ro 25-6981 3 M (1-2 hours incubation), same depolarizing current stimulation
# [6] = GluN2A KO mice, vs control group
compound,measurement,setting,value
C[C@]12N[C@H](Cc3ccccc31)c1ccccc12 [MK-801],intrinsic excitability of excitatory neurons in the hippocampus,[1]; acute hippocampal slices of WT mice incubated with Ro 25-6981 while adding MK-801,still induced an increase
same,excitability of hippocampal neurons (number of action potentials),[1]; [4],blocked the increase in excitability
same,excitability of hippocampal neurons (number of action potentials),[1]; [5],significantly increased
same,immobility time in the forced swim test,[2]; [6],comparable
same,immobility time in forced swimming,"[2]; GluN2A conditional knockout mice (tamoxifen-induced, adult), after treatment with MK-801 (FIG. 5)",not altered
same,rapid antidepressant like behavior (immobility time),"[2]; WT mice with GluN2B selectively inhibited by Ro 25-6981 plus MK-801, FIG. 11: tail suspension and forced swim tests",can still induce rapid antidepressant like behavior
same,immobility time in the forced swim test,"[2]; WT mice, vs control (saline)",significantly reduced
same,immobility time in forced swimming,"[2]; control mice (UBC-CreERT/Grin2a flox/flox without GluN2A knockout), after administration of MK-801 (FIG. 5)",significantly reduced
C[C@@H](CN1CCC(Cc2ccccc2)CC1)[C@@H](O)c1ccc(O)cc1 [Ro 25-6981],immobility time in tail suspension test,[3]; GluN2A KO mice,significantly reduced
same,immobility time in tail suspension test,"[3]; WT mice, vs control (Saline) group",significant decrease
same,excitability of hippocampal neurons (number of action potentials),[1]; [5],did not change
same,immobility time in the forced swim test,[2]; [6],significantly reduced
same,immobility time in the forced swim test,"[2]; WT mice, vs control (saline)",significant decrease
CNC1(c2ccccc2Cl)CCCCC1=O (centres unmarked) [ketamine],excitability of hippocampal neurons (number of action potentials),[1]; [4],blocked the increase in excitability
same,excitability of hippocampal neurons (number of action potentials),[1]; [5],significantly increased
same,immobility time in the forced swim test,[2]; [6],comparable
same,immobility time in the forced swim test,"[2]; WT mice, vs control (saline)",significantly reduced
